Measured values: ChEMBL document CHEMBL3885881, “DrugMatrix”

Species on record: Rattus norvegicus
Experiment: DrugMatrix - Regimen: Daily Repeat
Type: toxicity, organism-based, Sprague-Dawley
Parameters: regimen Daily Repeat, gender Male, age 6-8 weeks
Details: in vivo, po, route oral GAVAGE, vehicle 100 % WATER; for ABSOLUTE BASOPHIL / ABSOLUTE EOSINOPHIL / ABSOLUTE LYMPHOCYTE / ABSOLUTE MONOCYTE / ABSOLUTE SEGMENTED NEUTROPHIL / BASOPHIL / EOSINOPHIL / ERYTHROCYTE COUNT / HEMATOCRIT / HEMOGLOBIN / LEUKOCYTE COUNT / LYMPHOCYTE / MEAN CORPUSCULAR HEMOGLOBIN / MEAN CORPUSCULAR HEMOGLOBIN CONCENTRATION / MEAN CORPUSCULAR VOLUME / MONOCYTE / NEUTROPHIL / NUCLEATED RED BLOOD CELLS / PLATELET COUNT: tissue Blood; for ALANINE AMINOTRANSFERASE / ALBUMIN / ALKALINE PHOSPHATASE / ASPARTATE AMINOTRANSFERASE / BLOOD UREA NITROGEN / CARBON DIOXIDE / CHLORIDE / CHOLESTEROL / CREATINE PHOSPHOKINASE / CREATININE / GLUCOSE / LACTATE DEHYDROGENASE / LIPASE / PHOSPHORUS / POTASSIUM / SODIUM / TOTAL BILIRUBIN / TOTAL PROTEIN / URIC ACID: tissue Plasma
[1] = 0 mg/kg, 72 h, dose level Control, time 3 day
[2] = 0 mg/kg, 120 h, dose level Control, time 5 day
[3] = 31 mg/kg, 72 h, dose level Low, time 3 day

In the case of `Nc1ccc(S(=O)(=O)Nc2nccs2)cc1` [SULFATHIAZOLE], the “ABSOLUTE BASOPHIL” value [1] is reported as 0 CELLS/uL, the “ABSOLUTE EOSINOPHIL” value [1] is reported as 0 CELLS/uL and the “ABSOLUTE LYMPHOCYTE” value [1] is reported as 8482.5 CELLS/uL. The “ABSOLUTE MONOCYTE” value [1] was 63.83 CELLS/uL, the “ABSOLUTE SEGMENTED NEUTROPHIL” value [1] was 887 CELLS/uL and the BASOPHIL [1] was 0%. For the same molecule, the EOSINOPHIL [1] was 0%, the “ERYTHROCYTE COUNT” value [1] was 5.49 x10E6/uL and the HEMATOCRIT [1] was 34.5%. For the same molecule, the HEMOGLOBIN [1] was 13.33 G/DL, the “LEUKOCYTE COUNT” value [1] was 9.43 x10E3/uL and the LYMPHOCYTE [1] was 90.17%. The “MEAN CORPUSCULAR HEMOGLOBIN” value [1] was 24.3 pg, the “MEAN CORPUSCULAR HEMOGLOBIN CONCENTRATION” value [1] was 38.63 G/DL and the “MEAN CORPUSCULAR VOLUME” value [1] was 62.88 fL. For the same molecule, the MONOCYTE [1] was 0.67%, the NEUTROPHIL [1] was 9.17% and the “NUCLEATED RED BLOOD CELLS” value [1] was 0.67 /100WBC. The “PLATELET COUNT” value [1] was 1022.83 x10E3/uL, the “ALANINE AMINOTRANSFERASE” value [1] was 50.5 u/L and the ALBUMIN [1] was 4.08 G/DL. The “ALKALINE PHOSPHATASE” value [1] was 368.33 u/L, the “ASPARTATE AMINOTRANSFERASE” value [1] was 87.5 u/L and the “BLOOD UREA NITROGEN” value [1] was 12.83 mg/dL. For the same molecule, the “CARBON DIOXIDE” value [1] was 32.83 mmol/L, the CHLORIDE [1] was 99.67 MEQ/L and the CHOLESTEROL [1] was 79.67 mg/dL. For the same molecule, the “CREATINE PHOSPHOKINASE” value [1] was 585 u/L, the CREATININE [1] was 0.22 mg/dL and the GLUCOSE [1] was 135.67 mg/dL. The “LACTATE DEHYDROGENASE” value [1] was 171 u/L, the LIPASE [1] was 9.5 u/L and the PHOSPHORUS [1] was 11.18 mg/dL. The POTASSIUM [1] was 6.25 MEQ/L, the SODIUM [1] was 144.87 MEQ/L and the “TOTAL BILIRUBIN” value [1] was 0.2 mg/dL. The “TOTAL PROTEIN” value [1] was 6.08 G/DL, the “URIC ACID” value [1] was 0.65 mg/dL and the “ABSOLUTE BASOPHIL” value [2] was 0 CELLS/uL. The “ABSOLUTE EOSINOPHIL” value [2] was 14.5 CELLS/uL, the “ABSOLUTE LYMPHOCYTE” value [2] was 7596.17 CELLS/uL and the “ABSOLUTE MONOCYTE” value [2] was 69.67 CELLS/uL. The “ABSOLUTE SEGMENTED NEUTROPHIL” value [2] was 503 CELLS/uL, the BASOPHIL [2] was 0% and the EOSINOPHIL [2] was 0.17%. For the same molecule, the “ERYTHROCYTE COUNT” value [2] was 5.49 x10E6/uL, the HEMATOCRIT [2] was 34.72% and the HEMOGLOBIN [2] was 13.47 G/DL. The “LEUKOCYTE COUNT” value [2] was 8.18 x10E3/uL, the LYMPHOCYTE [2] was 92.17% and the “MEAN CORPUSCULAR HEMOGLOBIN” value [2] was 24.57 pg. The “MEAN CORPUSCULAR HEMOGLOBIN CONCENTRATION” value [2] was 38.82 G/DL, the “MEAN CORPUSCULAR VOLUME” value [2] was 63.3 fL and the MONOCYTE [2] was 1%. The NEUTROPHIL [2] was 6.67%, the “NUCLEATED RED BLOOD CELLS” value [2] was 0 /100WBC and the “PLATELET COUNT” value [2] was 1141 x10E3/uL. For the same molecule, the “ALANINE AMINOTRANSFERASE” value [2] was 48.33 u/L, the ALBUMIN [2] was 4.07 G/DL and the “ALKALINE PHOSPHATASE” value [2] was 395.67 u/L. The “ASPARTATE AMINOTRANSFERASE” value [2] was 85.67 u/L, the “BLOOD UREA NITROGEN” value [2] was 15.83 mg/dL and the “CARBON DIOXIDE” value [2] was 31.33 mmol/L. For the same molecule, the CHLORIDE [2] was 100.83 MEQ/L, the CHOLESTEROL [2] was 62.33 mg/dL and the “CREATINE PHOSPHOKINASE” value [2] was 248.33 u/L. The CREATININE [2] was 0.2 mg/dL, the GLUCOSE [2] was 135.67 mg/dL and the “LACTATE DEHYDROGENASE” value [2] was 141.33 u/L. For the same molecule, the LIPASE [2] was 9.5 u/L, the PHOSPHORUS [2] was 10.73 mg/dL and the POTASSIUM [2] was 6.07 MEQ/L. The SODIUM [2] was 145.35 MEQ/L, the “TOTAL BILIRUBIN” value [2] was 0.22 mg/dL and the “TOTAL PROTEIN” value [2] was 6.12 G/DL. For the same molecule, the “URIC ACID” value [2] was 0.63 mg/dL, the “ABSOLUTE BASOPHIL” value [3] was 0 CELLS/uL and the “ABSOLUTE EOSINOPHIL” value [3] was 0 CELLS/uL. For the same molecule, the “ABSOLUTE LYMPHOCYTE” value [3] was 8271.67 CELLS/uL, the “ABSOLUTE MONOCYTE” value [3] was 54.33 CELLS/uL and the “ABSOLUTE SEGMENTED NEUTROPHIL” value [3] was 707.33 CELLS/uL. The BASOPHIL [3] was 0%, the EOSINOPHIL [3] was 0% and the “ERYTHROCYTE COUNT” value [3] was 5.15 x10E6/uL. For the same molecule, the HEMATOCRIT [3] was 32.73%, the HEMOGLOBIN [3] was 12.87 G/DL and the “LEUKOCYTE COUNT” value [3] was 9.03 x10E3/uL. For the same molecule, the LYMPHOCYTE [3] was 91.33%, the “MEAN CORPUSCULAR HEMOGLOBIN” value [3] was 25.13 pg and the “MEAN CORPUSCULAR HEMOGLOBIN CONCENTRATION” value [3] was 39.33 G/DL. The “MEAN CORPUSCULAR VOLUME” value [3] was 63.97 fL, the MONOCYTE [3] was 0.67% and the NEUTROPHIL [3] was 8%. The “NUCLEATED RED BLOOD CELLS” value [3] was 0 /100WBC, the “PLATELET COUNT” value [3] was 928 x10E3/uL and the “ALANINE AMINOTRANSFERASE” value [3] was 54.67 u/L. The ALBUMIN [3] was 4.13 G/DL, the “ALKALINE PHOSPHATASE” value [3] was 375.67 u/L and the “ASPARTATE AMINOTRANSFERASE” value [3] was 86.67 u/L. For the same molecule, the “BLOOD UREA NITROGEN” value [3] was 13.67 mg/dL, the “CARBON DIOXIDE” value [3] was 32 mmol/L and the CHLORIDE [3] was 100.33 MEQ/L. The CHOLESTEROL [3] was 70.33 mg/dL, the “CREATINE PHOSPHOKINASE” value [3] was 289 u/L and the CREATININE [3] was 0.36 mg/dL. The GLUCOSE [3] was 128.67 mg/dL, the “LACTATE DEHYDROGENASE” value [3] was 147.33 u/L and the LIPASE [3] was 11.67 u/L. The PHOSPHORUS [3] was 11.83 mg/dL, the POTASSIUM [3] was 6.53 MEQ/L and the SODIUM [3] was 144.47 MEQ/L. For the same molecule, the “TOTAL BILIRUBIN” value [3] was 0.2 mg/dL, the “TOTAL PROTEIN” value [3] was 6.07 G/DL and the “URIC ACID” value [3] was 0.8 mg/dL.
